Measured values published in PMC7983974 (Basic & Clinical Pharmacology & Toxicology, 2020).
Where “and” joins values, the source holds several entries; their conditions need not be identical. Equal values may be shown once. Read-outs that look alike come from different tables or passages of the source.

What was measured:
UGT1A4 = target: T1, UGT1A4 (Homo sapiens, UniProt P22310); assay: M1 formation from molidustat by recombinant UGT1A4; assay type: in vitro ADME; details: 1 and 10 µmol L^−1
T1 sequence (P22310 29-534): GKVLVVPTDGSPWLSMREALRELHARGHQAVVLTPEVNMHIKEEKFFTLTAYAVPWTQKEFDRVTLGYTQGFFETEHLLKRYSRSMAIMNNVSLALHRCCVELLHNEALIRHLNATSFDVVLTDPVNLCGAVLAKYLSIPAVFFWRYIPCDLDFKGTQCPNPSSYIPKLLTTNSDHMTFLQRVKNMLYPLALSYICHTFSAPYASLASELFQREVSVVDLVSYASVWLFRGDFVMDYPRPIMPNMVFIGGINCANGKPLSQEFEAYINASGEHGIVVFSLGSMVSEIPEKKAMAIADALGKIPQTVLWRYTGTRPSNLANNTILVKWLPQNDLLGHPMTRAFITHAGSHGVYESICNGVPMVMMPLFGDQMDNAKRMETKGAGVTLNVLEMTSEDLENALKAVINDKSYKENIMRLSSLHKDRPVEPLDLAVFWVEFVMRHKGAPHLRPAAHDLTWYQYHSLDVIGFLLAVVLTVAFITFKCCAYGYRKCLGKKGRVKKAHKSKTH

UGT1A10 = target: T2, UGT1A10 (Homo sapiens, UniProt Q9HAW8); assay: M1 formation from molidustat by recombinant UGT1A10; assay type: in vitro ADME; details: 1 and 10 µmol L^−1
T2 sequence (Q9HAW8 26-530): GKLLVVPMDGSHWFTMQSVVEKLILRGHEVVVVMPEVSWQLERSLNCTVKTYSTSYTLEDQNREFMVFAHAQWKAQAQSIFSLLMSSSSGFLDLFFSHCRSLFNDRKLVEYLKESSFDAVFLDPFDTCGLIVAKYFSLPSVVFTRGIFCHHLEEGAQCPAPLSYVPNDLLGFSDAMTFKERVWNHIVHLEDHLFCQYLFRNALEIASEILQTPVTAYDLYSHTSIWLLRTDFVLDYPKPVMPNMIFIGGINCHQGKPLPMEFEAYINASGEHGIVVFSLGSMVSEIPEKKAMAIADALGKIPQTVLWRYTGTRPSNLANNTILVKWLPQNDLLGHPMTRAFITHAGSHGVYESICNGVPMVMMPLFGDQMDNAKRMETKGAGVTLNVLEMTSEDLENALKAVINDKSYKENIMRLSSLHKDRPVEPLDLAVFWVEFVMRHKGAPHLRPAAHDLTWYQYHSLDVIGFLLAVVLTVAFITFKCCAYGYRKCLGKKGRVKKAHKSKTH

UGT2B7 = target: T3, UGT2B7 (Homo sapiens, UniProt P16662); assay: M1 formation from molidustat by recombinant UGT2B7; assay type: in vitro ADME; details: 1 and 10 µmol L^−1
T3 sequence (P16662 24-529): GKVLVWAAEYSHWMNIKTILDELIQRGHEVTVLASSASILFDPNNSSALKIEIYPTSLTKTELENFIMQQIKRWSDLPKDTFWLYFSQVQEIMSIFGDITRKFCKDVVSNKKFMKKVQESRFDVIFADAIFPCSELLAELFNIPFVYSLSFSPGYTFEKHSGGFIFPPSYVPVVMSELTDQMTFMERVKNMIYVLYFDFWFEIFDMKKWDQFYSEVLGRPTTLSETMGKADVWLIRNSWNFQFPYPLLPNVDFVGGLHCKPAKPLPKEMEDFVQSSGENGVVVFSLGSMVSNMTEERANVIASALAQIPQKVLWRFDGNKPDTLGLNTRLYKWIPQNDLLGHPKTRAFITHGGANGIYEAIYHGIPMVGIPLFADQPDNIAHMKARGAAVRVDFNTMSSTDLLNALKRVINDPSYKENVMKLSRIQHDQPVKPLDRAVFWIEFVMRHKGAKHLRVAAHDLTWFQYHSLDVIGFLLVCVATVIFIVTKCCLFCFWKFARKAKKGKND

UGT2B17 = target: T4, UGT2B17 (Homo sapiens, UniProt O75795); assay: M1 formation from molidustat by recombinant UGT2B17; assay type: in vitro ADME; details: 1 and 10 µmol L^−1
T4 sequence (O75795 24-530): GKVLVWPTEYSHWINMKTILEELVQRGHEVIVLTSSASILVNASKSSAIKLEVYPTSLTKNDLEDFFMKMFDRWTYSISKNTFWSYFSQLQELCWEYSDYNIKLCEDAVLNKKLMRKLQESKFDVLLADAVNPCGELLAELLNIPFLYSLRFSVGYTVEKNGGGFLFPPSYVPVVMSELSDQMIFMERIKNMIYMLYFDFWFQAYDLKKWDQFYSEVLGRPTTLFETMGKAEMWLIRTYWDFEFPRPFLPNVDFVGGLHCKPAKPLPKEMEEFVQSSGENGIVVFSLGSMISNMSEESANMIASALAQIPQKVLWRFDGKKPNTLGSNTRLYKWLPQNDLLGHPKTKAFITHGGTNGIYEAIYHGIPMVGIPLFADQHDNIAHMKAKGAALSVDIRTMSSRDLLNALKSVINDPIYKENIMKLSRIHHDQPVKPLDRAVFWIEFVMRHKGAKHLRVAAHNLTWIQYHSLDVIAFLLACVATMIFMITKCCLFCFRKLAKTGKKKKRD

[1] = system: UGT-mediated glucuronidation of molidustat; assay: Enzyme kinetics of molidustat glucuronidation in pooled human liver microsomes; assay type: in vitro ADME; details: human, pooled human liver microsomes, pH 7.4
[2] = system: pooled human liver microsomes; assay: as above; assay type: in vitro ADME; details: human liver microsomes, Hill equation
[3] = assay type: in vivo, human; details: for Point estimate parameter ratio, AUC / Point estimate parameter ratio, AUC(0‐tlast) / Point estimate parameter ratio, C max: (Molidustat + atazanavir)/molidustat, ANOVA
EPO = assay: Clinical DDI study: pharmacodynamics, serum erythropoietin; assay type: in vivo, human; details: N 13
[4] = Clinical DDI study: safety and tolerability; assay type: in vivo, human; details: n = 14
[5] = human, cited from earlier work; for absolute oral bioavailability: oral (IR tablet)
HIF‐PH (EC 1.14.11.29) = details: cited from earlier work
[6] = male, human, plasma, oral, 25 mg

## O=c1c(-n2ccnn2)c[nH]n1-c1cc(N2CCOCC2)ncn1 [Molidustat]
UGT1A4
  activity for glucuronidation of molidustat: lacked measurable activity
UGT1A10
  activity for glucuronidation of molidustat: lacked measurable activity
UGT2B7
  activity for glucuronidation of molidustat: lacked measurable activity
UGT2B17
  activity for glucuronidation of molidustat: lacked measurable activity
[1]
  Km: 90 µM
[2]
  estimated S50: 90 µmol/L
[3]
  Point estimate parameter ratio, AUC: 2.0665
  Point estimate parameter ratio, AUC(0‐tlast): 2.0766
  Point estimate parameter ratio, C max: 2.0689
[3]; listed as molidustat
  Point estimate parameter ratio, AUC: 2.07 and 2
  Point estimate parameter ratio, AUC(0‐tlast): 2.08
  Point estimate parameter ratio, C max: 2.07
[3]; AUC, AUC(0‐t last), C max
  increase in exposure for molidustat with concomitant atazanavir: approximately 100%
[3]; [6]
  half-life: 6.3 h
  t max: 0.75 h
EPO
  EPO AUC(0‐24), absolute EPO concentration, arithmetic mean ± SD: 385 ± 121 IU L^−1*h
  EPO AUC(0‐24), absolute EPO concentration, geometric mean/CV%: 365 IU L^−1*h
  EPO C max, difference to baseline, arithmetic mean ± SD: 12.8 ± 4.02 IU L^−1
  EPO C max, ratio to baseline, arithmetic mean ± SD: 2.62 ± 0.578
  EPO C max, ratio to baseline, geometric mean/CV%: 2.56
[4]
  Abdominal pain (participants with TEAE): 0 n (%)
  Headache (participants with TEAE): 0 n (%)
  Participants with ≥ 1 TEAE: 0 n (%)
[4]; considered related to atazanavir
  Jaundice (participants with TEAE): 0 n (%)
[5]
  absolute oral bioavailability: about 60%
  fraction of the dose excreted as molidustat via faeces: ~ 6%
  fraction of the dose excreted as molidustat via urine: ~ 4%
[5]; listed as molidustat
  absolute oral bioavailability: 59%
HIF‐PH (EC 1.14.11.29)
  inhibition of HIF‐PH: nanomolar concentration range
